No end group written: not given here.
Assays:
Experiment in all cases: biochemical
[1] = molecular target: DRB1*0802 (Homo sapiens, UniProt P01903+P01911, A100R/A103L/A169T/F76Y/H45Y/I96F/K41T/L162R/M171V/P40S/Q125H/Q178H/Q39Y/Q99D/R218S/R42G/S66Y/V115G/W38E); assay type: binding
[2] = molecular target: DRB1*1201 (Homo sapiens, UniProt P01903+P01911, A100R/A169T/D57E/D86V/F55L/H45Y/K41T/L162R/M171V/P40S/Q125H/Q178H/Q39Y/Q99D/R42G/S66L/T262R/V114A/V67L/W38E/Y59H/Y61H/Y89S); assay type: binding
[3] = molecular target: DRB3*0101 (Homo sapiens, UniProt P01903+P79483); assay type: binding
[4] = molecular target: DRB1*1101 (Homo sapiens, UniProt P01903+P01911, A100R/A169T/A87E/I96F/K41T/L162R/M171V/P40S/Q125H/Q178H/Q39Y/Q99D/R42S/S66Y/T262R/V115G/W38E)
Chain of DRB1*1101 (P01903 26-254 limits assumed, other chains not shown): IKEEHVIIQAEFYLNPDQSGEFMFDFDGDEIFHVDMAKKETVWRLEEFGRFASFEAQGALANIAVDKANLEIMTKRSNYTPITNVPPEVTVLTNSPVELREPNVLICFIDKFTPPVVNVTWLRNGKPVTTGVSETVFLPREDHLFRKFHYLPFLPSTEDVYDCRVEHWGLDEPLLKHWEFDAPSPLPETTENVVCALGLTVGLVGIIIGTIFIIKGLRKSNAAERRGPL

[5] = molecular target: DRB5*0101 (Homo sapiens, UniProt P01903+Q30154)
[6] = molecular target: DR7 (DRB1*0701) (Homo sapiens, UniProt P01903+P01911, A100R/A102G/A103Q/D57E/D86V/E43K/F76Y/K127E/L162R/M171V/P40G/Q125H/Q99D/R33Q/R42Y/R54Q/S133A/S66F/T210M/V115G/Y107V/Y59L/Y89S); assay type: binding
[7] = molecular target: DRB1*0901 (Homo sapiens, UniProt P01903+P01911, A100R/A103E/D57H/D86V/F55Y/F60I/F76Y/I96F/K127E/L162R/M171V/P40D/Q125H/Q99R/R33Q/R42F/S133A/S66N/T210M/V115G/W38K/Y107V/Y59G/Y89S); assay type: binding
[8] = molecular target: DRB1*1302 (Homo sapiens, UniProt P01903+P01911, A100E/A169T/K41T/L162R/M171V/P40S/Q125H/Q178H/Q39Y/Q99D/R42S/S66N/T262R/V115G/W38E/Y61H); assay type: binding
Chain of DRB1*1302 (P01903 26-254 limits assumed, other chains not shown): as above

[9] = molecular target: DRB1*1501 (Homo sapiens, UniProt P01903+P01911); assay type: binding
[10] = molecular target: DR1 (DRB1*0101) (Homo sapiens, UniProt P01903+P01911, A100R/D57E/F55L/F60I/F76Y/I96L/L162R/M171V/P40L/Q125E/R42F/V115G/Y59C); assay type: binding
[11] = molecular target: DRB1*0405 (Homo sapiens, UniProt P01903+P01911, A100R/A169T/D86S/F76Y/I96L/K127E/L162R/M171V/N62H/P40V/Q125Y/R42H/S133A/S149N/S66Y/V115G/V209L/W38E); assay type: binding
[12] = molecular target: DRB4*0101 (Homo sapiens, UniProt P01903+P13762, G164S); assay type: binding
[13] = molecular target: DR4w4 (DRB1*0401) (Homo sapiens, UniProt P01903+P01911, A100K/A169T/F76Y/I96L/K127E/L162R/M171V/N62H/P40V/Q125Y/R42H/S133A/S149N/S66Y/V115G/V209L/W38E); assay type: binding

Compound | IC50 [1] [µM] | IC50 [2] [µM] | IC50 [3] [µM] | IC50 ([4]; Binding affinity DRB1 *1101) [µM] | IC50 ([5]; Binding affinity DRB5 *0101) [µM] | IC50 [6] [µM] | IC50 [7] [µM] | IC50 [8] [µM] | IC50 [9] [µM] | IC50 [10] [µM] | IC50 [11] [µM] | IC50 [12] [µM] | IC50 ([4]; DRB1*1101) [µM] | IC50 ([5]; DRB5*0101) [µM] | IC50 [13] [µM]
CC[C@H](C)[C@H](NC(=O)[C@H](CO)NC(=O)[C@H](CC(C)C)NC(=O)[C@@H](NC(=O)[C@H](CC(C)C)NC(=O)[C@@H](N)CC(=O)O)C(C)C)C(=O)N[C@@H](C)C(=O)N[C@@H](CC(C)C)C(=O)N[C@@H](CO)C(=O)N[C@H](C(=O)NCC(=O)N[C@@H](CS)C(=O)N[C@H](C(=O)NCC(=O)N[C@@H](C)C(=O)O)[C@@H](C)O)C(C)C [Peptide 68.0002] | > 20 | 4.92 | > 20 | > 20 | > 20 |  |  |  |  |  |  |  |  |  | 
CC(C)C[C@H](NC(=O)[C@H](CCC(=O)O)NC(=O)[C@H](CCCCN)NC(=O)[C@H](C)NC(=O)[C@H](CC(C)C)NC(=O)[C@@H](NC(=O)[C@H](CO)NC(=O)[C@H](CCCNC(=N)N)NC(=O)[C@@H](N)CC(=O)O)C(C)C)C(=O)N[C@@H](CCCCN)C(=O)N[C@@H](Cc1ccccc1)C(=O)N[C@H](C(=O)N[C@H](C(=O)N[C@@H](CC(C)C)C(=O)N[C@H](C(=O)O)C(C)C)[C@@H](C)O)C(C)C [Peptide 68.0024] |  | 0.301 | > 20 | > 20 |  |  |  |  |  |  |  |  |  |  | 
CC[C@H](C)[C@H](NC(=O)[C@@H](NC(=O)[C@@H]1CCCN1C(=O)CNC(=O)[C@@H](NC(=O)[C@H](CC(C)C)NC(=O)[C@H](CCC(=O)O)NC(=O)[C@H](C)NC(=O)[C@@H](N)Cc1ccccc1)C(C)C)C(C)C)C(=O)N1CCC[C@H]1C(=O)N[C@@H](CCC(N)=O)C(=O)N[C@@H](CC(=O)O)C(=O)N[C@@H](Cc1c[nH]c2ccccc12)C(=O)N[C@@H](CO)C(=O)N[C@H](C(=O)O)[C@@H](C)O [Peptide 68.0056] | > 20 |  | > 20 | > 20 | > 20 | > 20 | > 20 | > 20 | > 20 |  |  |  |  |  | 
CC[C@H](C)[C@H](NC(=O)[C@@H]1CCCN1C(=O)[C@H](Cc1c[nH]cn1)NC(=O)[C@@H](NC(=O)[C@@H]1CCCN1C(=O)[C@@H](NC(=O)[C@H](CO)NC(=O)[C@@H]1CCCN1C(=O)[C@H](CC(C)C)NC(=O)CNC(=O)[C@@H](NC(=O)[C@H](C)NC(=O)[C@H](CCC(=O)O)NC(=O)[C@H](C)N)C(C)C)[C@@H](C)CC)C(C)C)C(=O)NCC(=O)O [Peptide 68.0101] | > 20 | 0.7 | > 20 | > 20 | > 20 |  | > 20 |  |  |  |  |  |  |  | 
CC[C@H](C)[C@H](N)C(=O)N[C@@H](Cc1ccc(O)cc1)C(=O)N[C@@H](CO)C(=O)N[C@H](C(=O)N[C@@H](CO)C(=O)N[C@@H](CCSC)C(=O)N[C@@H](CCCCN)C(=O)N[C@@H](Cc1c[nH]cn1)C(=O)N1CCC[C@H]1C(=O)N[C@@H](CCC(N)=O)C(=O)N[C@@H](CCC(=O)O)C(=O)N[C@@H](CCSC)C(=O)N[C@@H](CCCCN)C(=O)N[C@H](C(=O)N[C@@H](Cc1ccc(O)cc1)C(=O)O)[C@@H](C)O)[C@@H](C)CC [Peptide 68.0126] |  | 11.4 | > 20 |  |  |  |  | > 20 |  |  |  |  |  |  | 
CC[C@H](C)[C@H](NC(=O)[C@@H](NC(=O)[C@H](Cc1c[nH]cn1)NC(=O)[C@@H](N)CCCNC(=N)N)C(C)C)C(=O)N[C@@H](Cc1ccc(O)cc1)C(=O)N[C@@H](C)C(=O)N1CCC[C@H]1C(=O)N[C@@H](CO)C(=O)N[C@@H](CO)C(=O)N[C@@H](Cc1c[nH]cn1)C(=O)N[C@@H](CC(N)=O)C(=O)N[C@@H](CCCCN)C(=O)N[C@@H](Cc1ccc(O)cc1)C(=O)N[C@@H](C)C(=O)NCC(=O)O [Peptide 68.0133] |  | 7.08 | > 20 |  |  | > 20 |  |  |  |  |  |  |  |  | 
CC[C@H](C)[C@H](NC(=O)[C@@H](N)CCC(=O)O)C(=O)N[C@H](C(=O)N[C@@H](CC(C)C)C(=O)N[C@@H](Cc1c[nH]cn1)C(=O)N[C@@H](CC(C)C)C(=O)N[C@@H](CCC(=O)O)C(=O)N1CCC[C@H]1C(=O)N[C@@H](CCC(N)=O)C(=O)N[C@@H](CC(N)=O)C(=O)N[C@@H](CCC(=O)O)C(=O)N[C@@H](CC(C)C)C(=O)N[C@@H](CC(=O)O)C(=O)N1CCC[C@H]1C(=O)N[C@H](C(=O)O)C(C)C)C(C)C [Peptide 1543.20] | > 20 | > 20 | > 20 | > 20 | > 20 |  | > 20 |  | > 20 |  |  |  |  |  | 
ADKIYSISMKHPQEM [Peptide 68.0125] |  | 9.25 | > 20 |  | > 20 |  |  |  |  | > 20 |  |  |  |  | 
DFEVFFQRLGIASGR [Peptide 68.0114] |  | 2 | > 20 |  |  | > 20 |  |  |  |  |  |  |  |  | 
EISFAGIVTKLPTAN [Peptide 89.0174] | 11.3 |  | 0.07 | > 20 |  | 7.8 | > 20 |  | 8.14 | 18.7 | > 20 | > 20 |  |  | 
GIVEQTTTSITSLYQ [Peptide 9000.0054] |  |  | > 95.2 |  |  |  |  | 0.014 | 0.849 |  |  | 2.3 | > 10.5 | > 37.6 | 
GNEIFNTSLFEPPPP [Peptide 68.0090] | > 20 | > 20 | > 20 | > 20 | > 20 | > 20 |  |  | > 20 | > 20 |  |  |  |  | 
HPLYNMSLLKHQSLR [Peptide 68.0008] |  | 0.095 | > 20 |  |  |  |  |  |  |  |  |  |  |  | 
LDHYENDSKDINSQI [Peptide 1601.29] | > 20 |  | 2.05 | > 20 | > 20 | 19.9 | > 20 | > 20 | > 20 | > 20 | > 20 | 0.554 |  |  | > 20
LETIYNSQYSNEKWT [Peptide 1601.03] | > 20 |  | > 20 | > 20 | 0.208 | > 20 | 6.1 | 6.8 | 0.563 | 8.61 | 3 |  |  |  | 0.099
NMSLLKHQSLRPDED [Peptide 68.0009] | > 20 |  | > 20 | > 20 | > 20 | > 20 | > 20 | > 20 | > 20 |  |  |  |  |  | > 20
PHPLYNMSLLKHQSL [Peptide 68.0007] |  | 0.86 | > 20 |  |  | > 20 |  |  |  |  |  |  |  |  | 
RVPVSHSFPHPLYNM [Peptide 68.0006] | > 20 |  | > 20 | > 20 |  |  |  |  |  |  |  |  |  |  | > 20
TNKFSGYPLYHSVYE [Peptide 68.0116] |  | 4.48 | > 20 | > 20 |  | > 20 |  | > 20 |  |  |  |  |  |  | 
VILLGRHSLFHPEDT [Peptide 68.0068] |  | 0.056 | > 20 |  |  | > 20 |  |  |  |  |  |  |  |  | 
YDPLYCESVHNFTLP [Peptide 68.0041] | > 20 | > 20 | > 20 | > 20 | > 20 |  |  | > 20 |  |  |  |  |  |  | 

Source: patent US9340577B2, “HLA binding motifs and peptides and their uses” (priority 1992, dated 2016)
